Experimental data taken from patent publication US20220289679A1, “HETEROCYCLIC COMPOUND” (Takeda Pharmaceutical Company Limited, priority 2019, published 2022).

Each compound was assayed against T1, human GCS (glucosylceramide synthase) (Homo sapiens, UniProt Q16739) (assay: Glucosylceramide Synthase (GCS) Assay). Conditions: test compound 10 μM; microsome fraction of Expi293F cells expressing human GCS; 1.7 μM UDP-glucose, 3 μM C8 ceramide; room temperature 60 min; C8 glucosylceramide by Rapidfire MS/MS; read-out: GCS enzyme inhibitory rate at 10 μM (%).
T1 construct: made in house; host or cells: Expi293F cells (transient expression; microsome fraction)
T1 sequence (Q16739 1-394): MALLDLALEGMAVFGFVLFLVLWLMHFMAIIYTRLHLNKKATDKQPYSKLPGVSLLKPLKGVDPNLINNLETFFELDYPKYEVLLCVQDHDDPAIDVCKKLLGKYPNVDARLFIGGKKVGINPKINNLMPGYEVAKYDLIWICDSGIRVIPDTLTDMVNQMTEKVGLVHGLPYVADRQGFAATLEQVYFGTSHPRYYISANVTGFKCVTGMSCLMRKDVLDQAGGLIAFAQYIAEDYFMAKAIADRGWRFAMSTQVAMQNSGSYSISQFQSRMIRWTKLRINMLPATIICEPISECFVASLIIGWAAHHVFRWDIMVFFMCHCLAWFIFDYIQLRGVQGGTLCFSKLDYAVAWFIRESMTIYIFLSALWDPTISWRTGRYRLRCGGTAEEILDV
Type: biochemical
In short: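 Test compounds were run at a final 10 μM against liposomal C8 ceramide (3 μM) and UDP-glucose at its Km (1.7 μM). Human GCS came as microsomes from transfected Expi293F cells, incubated 60 min at room temperature, pH 7.5. Product measured by RapidFire MS/MS; 0% and 100% inhibition were DMSO and no-enzyme wells.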

Structure (SMILES)	inhibition at 10 µM
O=C(Nc1ccc(C(O)(C(F)F)C(F)F)cc1)c1cn(C2COC2)nc(-c2ccccc2OCC(F)F)c1=O [Example 184, 6-[2-(2,2-difluoroethoxy)phenyl]-2-(oxetan-3-yl)-5-oxo-N-[4-(1,1,3,3-tetrafluoro-2-hydroxypropan-2-yl)phenyl]-2,5-dihydropyridazine-4-carboxamide]	100%
Cn1cc(C(=O)Nc2ccc(C(F)F)cc2)c(=O)c(-c2ccccc2OCC(F)F)n1 [Example 185, 6-[2-(2,2-difluoroethoxy)phenyl]-N-[4-(difluoromethyl)phenyl]-2-methyl-5-oxo-2,5-dihydropyridazine-4-carboxamide]	79%
O=C(Nc1ccc(C(O)(C(F)F)C(F)F)nc1)c1cn(CC(F)F)nc(-c2ccccc2OCC(F)F)c1=O [Example 186, 6-[2-(2,2-difluoroethoxy)phenyl]-2-(2,2-difluoroethyl)-5-oxo-N-[6-(1,1,3,3-tetrafluoro-2-hydroxypropan-2-yl)pyridin-3-yl]-2,5-dihydropyridazine-4-carboxamide]	100%
O=C(Nc1ccc(C(O)(C(F)F)C(F)F)nc1)c1cn(C2COC2)nc(-c2ccccc2OCC(F)F)c1=O [Example 187, 6-[2-(2,2-difluoroethoxy)phenyl]-2-(oxetan-3-yl)-5-oxo-N-[6-(1,1,3,3-tetrafluoro-2-hydroxypropan-2-yl)pyridin-3-yl]-2,5-dihydropyridazine-4-carboxamide]	100%
O=C(Nc1ccc(C(O)(C(F)F)C(F)F)nc1)c1cn(CC2COC2)nc(-c2ccccc2OCC(F)F)c1=O [Example 188, 6-[2-(2,2-difluoroethoxy)phenyl]-2-[(oxetan-3-yl)methyl]-5-oxo-N-[6-(1,1,3,3-tetrafluoro-2-hydroxypropan-2-yl)pyridin-3-yl]-2,5-dihydropyridazine-4-carboxamide]	99%
O=C(Nc1ccc(C(O)(C(F)F)C(F)F)nc1)c1cn(C2CC2)nc(-c2ccccc2OCC(F)F)c1=O [Example 189, 2-cyclopropyl-6-[2-(2,2-difluoroethoxy)phenyl]-5-oxo-N-[6-(1,1,3,3-tetrafluoro-2-hydroxypropan-2-yl)pyridin-3-yl]-2,5-dihydropyridazine-4-carboxamide]	100%
Cn1cc(C(=O)Nc2ccc(C(C)(C)C#N)cc2)c(=O)c(-c2ccccc2OCC(F)(F)F)n1 [Example 190, N-[4-(2-cyanopropan-2-yl)phenyl]-2-methyl-5-oxo-6-[2-(2,2,2-trifluoroethoxy)phenyl]-2,5-dihydropyridazine-4-carboxamide]	100%
CC(C)(C#N)c1ccc(NC(=O)c2cn(C3COC3)nc(-c3ccccc3OCC(F)F)c2=O)cc1 [Example 191, N-[4-(2-cyanopropan-2-yl)phenyl]-6-[2-(2,2-difluoroethoxy)phenyl]-2-(oxetan-3-yl)-5-oxo-2,5-dihydropyridazine-4-carboxamide]	100%
CC(C)(C#N)c1ccc(NC(=O)c2cn(C3CC3)nc(-c3ccccc3OCC(F)F)c2=O)cc1 [Example 192, N-[4-(2-cyanopropan-2-yl)phenyl]-2-cyclopropyl-6-[2-(2,2-difluoroethoxy)phenyl]-5-oxo-2,5-dihydropyridazine-4-carboxamide]	100%
CCOC(=O)c1ccc(NC(=O)c2cc(C)nn(-c3ccccc3OCC(F)F)c2=O)cc1 [Example 194, ethyl 4-({2-[2-(2,2-difluoroethoxy)phenyl]-6-methyl-3-oxo-2,3-dihydropyridazine-4-carbonyl}amino)benzoate]	97%
CCOC(=O)c1cc(C(=O)Nc2ccc(OC(F)F)cc2)c(=O)n(-c2ccccc2OCC(F)(F)F)n1 [Example 198, ethyl 5-{[4-(difluoromethoxy)phenyl]carbamoyl}-6-oxo-1-[2-(2,2,2-trifluoroethoxy)phenyl]-1,6-dihydropyridazine-3-carboxylate]	98%

Next, values leading:

inhibition at 10 µM	Structure (SMILES)
99%	CC(=O)c1cc(C(=O)Nc2ccc(OC(F)F)cc2)c(=O)n(-c2ccccc2OCC(F)(F)F)n1 [Example 197, 6-acetyl-N-[4-(difluoromethoxy)phenyl]-3-oxo-2-[2-(2,2,2-trifluoroethoxy)phenyl]-2,3-dihydropyridazine-4-carboxamide]
99%	CC(C)(O)c1cc(C(=O)Nc2ccc(OC(F)F)cc2)c(=O)n(-c2ccccc2OCC(F)(F)F)n1 [Example 200, N-[4-(difluoromethoxy)phenyl]-6-(2-hydroxypropan-2-yl)-3-oxo-2-[2-(2,2,2-trifluoroethoxy)phenyl]-2,3-dihydropyridazine-4-carboxamide]
100%	CC(C)(O)c1cc(C(=O)Nc2ccc(C(C)(C)C#N)cc2)c(=O)n(-c2ccccc2OCC(F)(F)F)n1 [Example 201, N-[4-(2-cyanopropan-2-yl)phenyl]-6-(2-hydroxypropan-2-yl)-3-oxo-2-[2-(2,2,2-trifluoroethoxy)phenyl]-2,3-dihydropyridazine-4-carboxamide]
99%	CC(C)(O)c1ccc(NC(=O)c2cc(C(C)(C)O)nn(-c3ccccc3OCC(F)(F)F)c2=O)cc1 [Example 202, 6-(2-hydroxypropan-2-yl)-N-[4-(2-hydroxypropan-2-yl)phenyl]-3-oxo-2-[2-(2,2,2-trifluoroethoxy)phenyl]-2,3-dihydropyridazine-4-carboxamide]
99%	C=C(C)c1ccc(NC(=O)c2cc(C(C)(C)O)nn(-c3ccccc3OCC(F)(F)F)c2=O)cc1 [Example 203, 6-(2-hydroxypropan-2-yl)-3-oxo-N-[4-(prop-1-en-2-yl)phenyl]-2-[2-(2,2,2-trifluoroethoxy)phenyl]-2,3-dihydropyridazine-4-carboxamide]
